Reference: patent publication US10137185B2, “PAP peptide analogues” (THE NOTTINGHAM TRENT UNIVERSITY, priority 2014, dated 2018)
“And” between values parts separate entries of the source, which are not always exact repeats. Identical values can stand only once.

Test system: PBMCs isolated from patients with prostate cancer
Experiment: IFNγ ELISPOT of pre- and post-vaccination PBMCs, Norway clinical trial (mRNA-transfected DC vaccine)
Assay type: cell-based, human
Settings: for post-vaccination samples with significantly higher peptide-specific IFNγ response than pre-vaccination: of 8 responder samples, 48 hours
From the text: FIG. 4. The flow chart of Norway clinical trial. Monocytes were isolated from patients with prostate cancer and cultured in vitro. mRNA isolated from the prostate cancer cell lines DU145, LNCAP and PC3 were transfected into immature dendritic cells (DCs). The DCs were then allowed to mature and were re-infused back into the patient. PBMCs isolated a week before (pre-vaccination) and 12 weeks after immunisations (post-vaccination) were used in this study. The patients were categorised as responders and non-responders based on the PSA levels and also metastatic state of the disease based on bone scans post immunisation.
FIG. 5. IFNγ response of PBMCs isolated from patients with prostate cancer who had responded to the therapy and were categorised as being ‘responders’ on the basis of the criteria detailed above (Norway Clinical Trial) after re-stimulation with PAP-115-123 epitope peptide (10 μg), as determined using the ELISPOT assay. PBMCs isolated pre-vaccination (black bars) and post vaccination (red bars) are compared. Patient samples are represented as p10, p12, p15 etc. The cryopreserved PBMCs were washed and rested overnight, at which time 4×10^4 cells were added to each well of an ELISPOT plate. PAP-115-123 epitope peptide (10 μg) was added to each well and the cells cultured for 48 hours. The plates were then washed according to the manufacturer's protocol. PBMCs cultured with an HIV-derived peptide or no added peptide were used as controls. Comparisons of means (±SEM) between groups (pre-vaccination or post-vaccination PBMCs) are made using an unpaired t test.
FIG. 6. IFNγ response of PBMCs isolated from patients with prostate cancer who had responded to the therapy and were categorised as being ‘responders’ on the basis of the criteria detailed above after re-stimulation with PAP-115-123 epitope peptide (1 μg), as determined using the ELISPOT assay. PBMCs isolated pre-vaccination (black bars) and post-vaccination (red bars) are compared here. Patient samples are represented as p10, p12, p15 etc. The cryopreserved PBMCs were washed and rested overnight, at which time 4×10^4 cells were added to each well of an ELISPOT plate. PAP-115-123 epitope peptide (1 μg) was added to each well and the cells cultured for 48 hours. The plates were then washed according to manufacturer's protocol. PBMCs cultured with HIV-derived peptide or no added peptide were used as controls. Comparisons of means (±SEM) between groups (pre-vaccination or post-vaccination PBMCs) are made using an unpaired t test.
FIG. 7. Fold change in the IFNγ response generated by PBMCs isolated from patients with prostate cancer from the Norway Clinical Trial after restimulation with PAP-115-123 epitope peptide (10 μg), as determined using the ELISPOT assay. Patients that were reported to have responded to the treatment (p10, p12, p15, p19, p101, p102, p107, p108) are indicated by red bars. […] The cryopreserved PBMCs were washed and rested overnight, at which time 4×10^4 cells were added to each well of an ELISPOT plate. PAP-115-123 epitope peptide (10 μg) was added to each well and the plates cultured for 48 hours. The plates were then washed according to the manufacturer's protocol. PBMCs cultured with HIV-derived peptide or no added peptide were used as control.
The presence of circulating PAP-115-123 specific T cells in PBMCs isolated from patients with prostate cancer following treatment with DCs that had been transfected with mRNA isolated from the prostate cancer cell lines (DU145, LNCaP and PC3) as part of a Norwegian Clinical Trial which was performed by Professor Gustav Gaudernack was determined on the basis of their responsiveness to PAP-derived peptides. In the trial, DCs were isolated from patients with prostate cancer and cultured DCs were transfected with mRNA isolated from the prostate cancer cell lines (DU145, LNCaP and PC3). The matured DCs were re-infused back into the patients (FIG. 4). […]

Sequence: SAMTNLAAL [PAP-115-123]
- number of spots, pre-vaccination samples (1 μg peptide): 10-30 spots
- number of spots, post-vaccination samples (1 μg peptide, patients p12, p19, p101, p102, p107, p108): 60-140 spots
- number of spots, pre-vaccination samples (10 μg peptide): 10-30 spots
- number of spots, post-vaccination samples (10 μg peptide, patients p12, p15, p19, p102, p107, p108): 60-160 spots
- fold decrease in IFNγ response post vs pre vaccination, non-responders (4 non-responder patients, 10 μg peptide, ELISPOT): 2-12 fold and 2-10 fold
- fold higher peptide-specific IFNγ response post vs pre vaccination, responders (8 responder patients, 10 μg peptide, ELISPOT): 2-4 fold
- post-vaccination samples with significantly higher peptide-specific IFNγ response than pre-vaccination (1 μg peptide): 6
- post-vaccination samples with significantly higher peptide-specific IFNγ response than pre-vaccination (10 μg peptide): 6
